The text below walks through data of paper PMC10805714, “Functionally-selective inhibition of threshold sodium currents and excitability in dorsal root ganglion neurons by cannabinol” (Communications Biology, 2024).

One assay has as its target T1, Nav1.7-P610T (Homo sapiens, UniProt Q15858, P610T).
T1 construct: gene SCN9A; P610T plasmid transfected in HEK293 cells
The assay is described as follows: automated patch-clamp, steady-state inactivation shift with […] s pre-pulse. Format: cell-based. For orientation: In patch-clamp work, channel activity is measured electrically.

In a further assay the target is T2, Nav1.7 (Homo sapiens, UniProt Q15858).
T2 construct: gene SCN9A; human Nav1.7 stably expressed in HEK293 cells; with SCN1B (human, co-transfected)
Put plainly: automated whole-cell patch-clamp (Qube-384), IC50 at -90 mV holding-potential. Format: cell-based.

T2 sequence (Q15858 whole entry): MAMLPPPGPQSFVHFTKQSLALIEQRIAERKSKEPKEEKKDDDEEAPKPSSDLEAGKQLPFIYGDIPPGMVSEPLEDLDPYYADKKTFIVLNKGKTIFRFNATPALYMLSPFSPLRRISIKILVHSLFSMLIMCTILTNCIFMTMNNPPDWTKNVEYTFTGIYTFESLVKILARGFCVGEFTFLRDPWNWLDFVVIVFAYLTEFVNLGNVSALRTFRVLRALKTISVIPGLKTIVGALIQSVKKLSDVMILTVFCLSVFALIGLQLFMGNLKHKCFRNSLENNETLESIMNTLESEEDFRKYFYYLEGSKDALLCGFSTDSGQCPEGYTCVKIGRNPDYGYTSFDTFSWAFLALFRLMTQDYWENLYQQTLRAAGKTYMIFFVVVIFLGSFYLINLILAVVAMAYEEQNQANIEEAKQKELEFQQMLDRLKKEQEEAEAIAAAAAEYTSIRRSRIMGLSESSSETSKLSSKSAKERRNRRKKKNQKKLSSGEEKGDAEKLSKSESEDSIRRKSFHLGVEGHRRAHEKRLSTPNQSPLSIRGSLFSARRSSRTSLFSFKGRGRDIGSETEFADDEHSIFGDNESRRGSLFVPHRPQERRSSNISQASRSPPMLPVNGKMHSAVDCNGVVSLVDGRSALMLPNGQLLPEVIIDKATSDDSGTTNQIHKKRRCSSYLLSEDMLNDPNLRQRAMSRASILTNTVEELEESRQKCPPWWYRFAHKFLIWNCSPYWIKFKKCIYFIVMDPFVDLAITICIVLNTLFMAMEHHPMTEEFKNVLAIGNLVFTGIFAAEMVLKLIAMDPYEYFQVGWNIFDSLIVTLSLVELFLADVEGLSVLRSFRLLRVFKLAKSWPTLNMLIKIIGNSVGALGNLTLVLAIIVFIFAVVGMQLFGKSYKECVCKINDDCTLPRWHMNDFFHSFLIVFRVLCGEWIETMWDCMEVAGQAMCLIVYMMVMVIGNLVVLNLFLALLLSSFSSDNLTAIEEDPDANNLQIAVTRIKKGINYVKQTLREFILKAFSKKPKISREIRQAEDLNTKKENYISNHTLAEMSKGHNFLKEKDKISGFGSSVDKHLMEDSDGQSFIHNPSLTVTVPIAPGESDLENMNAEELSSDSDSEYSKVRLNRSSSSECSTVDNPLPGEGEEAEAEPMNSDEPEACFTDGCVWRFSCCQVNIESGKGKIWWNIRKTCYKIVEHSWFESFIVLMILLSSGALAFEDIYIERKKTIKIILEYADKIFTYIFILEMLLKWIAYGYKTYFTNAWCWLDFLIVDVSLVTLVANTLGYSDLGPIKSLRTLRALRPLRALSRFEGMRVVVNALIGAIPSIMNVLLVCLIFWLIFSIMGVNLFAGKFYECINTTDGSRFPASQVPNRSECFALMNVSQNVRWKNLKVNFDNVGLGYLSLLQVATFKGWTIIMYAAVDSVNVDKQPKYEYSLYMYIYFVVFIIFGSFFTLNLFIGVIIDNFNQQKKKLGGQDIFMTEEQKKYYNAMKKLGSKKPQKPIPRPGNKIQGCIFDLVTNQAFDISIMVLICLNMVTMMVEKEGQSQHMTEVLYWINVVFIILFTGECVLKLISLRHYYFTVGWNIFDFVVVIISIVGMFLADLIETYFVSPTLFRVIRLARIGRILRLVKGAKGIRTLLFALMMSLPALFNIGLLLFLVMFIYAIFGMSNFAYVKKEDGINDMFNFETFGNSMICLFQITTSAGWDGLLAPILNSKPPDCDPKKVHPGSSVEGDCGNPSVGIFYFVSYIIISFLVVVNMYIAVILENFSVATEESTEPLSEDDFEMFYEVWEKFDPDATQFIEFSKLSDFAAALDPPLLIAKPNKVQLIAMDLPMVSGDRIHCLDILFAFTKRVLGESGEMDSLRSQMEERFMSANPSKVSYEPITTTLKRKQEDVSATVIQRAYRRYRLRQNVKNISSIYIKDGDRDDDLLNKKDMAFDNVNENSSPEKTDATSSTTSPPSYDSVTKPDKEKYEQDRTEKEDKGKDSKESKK
T2 sequence (Q07699 19-218 partner): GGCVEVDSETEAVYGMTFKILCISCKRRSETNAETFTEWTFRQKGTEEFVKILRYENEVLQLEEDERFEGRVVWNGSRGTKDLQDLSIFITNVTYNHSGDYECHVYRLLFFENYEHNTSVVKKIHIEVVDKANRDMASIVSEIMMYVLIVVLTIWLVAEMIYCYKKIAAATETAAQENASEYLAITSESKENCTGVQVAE
T1 sequence (Q15858 whole entry P610T): as the sequence (Q15858 whole entry) above, with P610T counted along it

As a reminder, the IC50 is the concentration needed to halve the response being measured. A low value points to greater potency in that assay. As to `CCCCCc1cc(O)c2c(c1)OC(C)(C)c1ccc(C)cc1-2` [CBN, Cannabinol], on Nav1.7-P610T, the “automated patch-clamp, steady-state inactivation shift with 5 s pre-pulse” value is “CBN hyperpolarized the SSI curves in both WT and P610T (Fig. S1)”. Also, 10.7 µM corresponded to half-maximal inhibition at Nav1.7 (IC50).
